Reference: PubChem BioAssay AID2060887 (Molecular Pharmacology Branch, DTP, NCI, 2025)

Tested on: 782815-120-R-J1-PDC complex spheroid viability
Assay: Anticancer human tumor 782815-120-R-J1-PDC patient-derived colon adenocarcinoma cell line growth inhibition [RAS]
Conditions: for IC50: curve of first compound; for viability, T/C: stronger effect = lower value; active = viability on the fitted dose curve at most 10% of control; inactive = the rest
Description: RAS pathway inhibitors in Combinations in Complex Spheroids
A high-throughput screen of multi-cell type tumor spheroids was designed to identify active combinations of RAS pathway inhibitors and targeted small molecules. Complex spheroids include a stromal component modeled by human endothelial cells (HUVEC) and fibroblasts modeled by human mesenchymal stem cells (MSCs). The concentration ranges selected for each drug and investigational agent were based upon clinically achievable concentrations if the clinical Cmax of the agent was known.
Compounds. The drugs and investigational agents: abemaciclib (NSC768073), cobimetinib (NSC768068), divarasib (GDC6063, NSC841802), docetaxel (NSC628503), GDC-1971 (RLY-1971, NSC841576), gemcitabine (NSC613327), inavolisib (NSC800729), ipatasertib (NSC767898), KB-0742 (NSC834161), MRTX-1133 (NSC836407), osimertinib (NSC779217), RMC-4630 (NSC839698), RMC-6236 (NSC851965), RMC-6291 (NSC852671), Ro-3306 (NSC812927), sapanisertib (NSC764658), SN-38 (NSC673596), staurosporine (NSC755774), SY5609 (NSC837396), and tovorafenib (DAY101, NSC766906), were obtained from the National Cancer Institute (NCI) Developmental Therapeutics Program Chemical Repository. The FDA-approved anticancer drug set is available from the NCI Developmental Therapeutics Program. […] The stock solutions were prepared in dimethyl sulfoxide (DMSO, Sigma-Aldrich, St. Louis, MO, cat. D2650) at 800-fold the tested concentration and stored at -70 degrees C prior to their use. All drugs and investigational agents were tested over a range starting from a high concentration at or near the clinical Cmax and decreasing in half-log increments. If the clinical Cmax for an agent had not been determined, the highest concentration tested was 10 microM.
Cell Culture. All cells were maintained in an incubator at 37 degrees C and 5% CO2 with 95% humidity. The PDC lines were cultured according to standard operating procedures established by the NCI PDMR. All PDCs were thawed and cultured in Matrigel-coated flasks prepared with a working solution of 1X Ham's F-12 nutrient mix, without supplementation (Invitrogen, Waltham, MA, cat. 11765054), 100 U/mL penicillin-streptomycin (Invitrogen, cat. 15140122), and 2.5% Matrigel (Corning Inc., Corning, NY, cat. 354248) for the first three passages. The 362531-283-R-J2-PDC and 782815-120-R-J1-PDC lines were cultured in 6C/Colon 1B media, which includes advanced DMEM/F-12 (Thermo Fisher Scientific, cat. 12634028), 10 mM HEPES (Thermo Fisher Scientific, cat. 15630080), 1X GlutaMAX supplement (Thermo Fisher Scientific, cat. 35050061), 0.1 mg/mL primocin (InvivoGen, San Diego, CA, cat. ant-pm-2), 10% defined fetal bovine serum, heat inactivated (HyClone Laboratories Inc., Logan, UT, cat. SH30070.03HI), 50% L-WRN conditioned media (ATCC, cat. CRL-3276), 1.25 mM N-Acetyl-L-cysteine (Sigma-Aldrich, cat. A9165), 10 mM nicotinamide (Sigma-Aldrich, cat. N0636), 1X B-27 supplement (Thermo Fisher Scientific, cat. 17504044), 1X N-2 supplement (Thermo Fisher Scientific, cat. 17502048), 50 ng/mL human EGF (Thermo Fisher Scientific, cat. PHG0311), and 10 microM Y-27632 dihydrochloride (Tocris Bioscience, cat. 1254). The K12877-001-R-J1-PDC line was cultured in 6I media, which includes all 6C/Colon 1B media plus 10 ng/mL human FGF-10 (PeproTech, cat. 100-26), 1 ng/mL human FGF-2 (PeproTech, cat. 100-18B), 1 µM prostaglandin E2 (Tocris Bioscience, cat. 2296), […] hydrocortisone (Sigma-Aldrich, cat. H4001), and […] bovine insulin (Sigma-Aldrich, cat. I6634). The K86415-001-R-J1-PDC line was cultured in 6D media, which includes all 6C/Colon 1B media components minus the L-WRN conditioned media. The 485176-168-R4-J1-PDC was cultured in PANC media, which includes all 6C/Colon 1B media plus 100 ng/mL human FGF-10 (PeproTech, cat. 100-26), 500 nM SB-431542 (Selleckchem, cat. S1067), and 10 nM gastrin (Tocris Bioscience, cat. 3006). […]

[1] = second compound 0.0316 µM, first compound 0.0316 µM
[2] = second compound 0.0316 µM, first compound 0.1 µM
[3] = second compound 0.0316 µM, first compound 0.316 µM
[4] = second compound 0.0316 µM, first compound 1 µM
[5] = second compound 0.0316 µM, first compound 3.16 µM
[6] = second compound 0.0316 µM, first compound 10 µM
[7] = second compound 0.1 µM, first compound 0.0316 µM
[8] = second compound 0.1 µM, first compound 0.1 µM
[9] = second compound 0.1 µM, first compound 0.316 µM
[10] = second compound 0.1 µM, first compound 1 µM
[11] = second compound 0.1 µM, first compound 3.16 µM
[12] = second compound 0.1 µM, first compound 10 µM
[13] = second compound 0.316 µM, first compound 0.0316 µM
[14] = second compound 0.316 µM, first compound 0.1 µM
[15] = second compound 0.316 µM, first compound 0.316 µM
[16] = second compound 0.316 µM, first compound 1 µM
[17] = second compound 0.316 µM, first compound 3.16 µM
[18] = second compound 0.316 µM, first compound 10 µM
[19] = second compound 1 µM, first compound 0.0316 µM
[20] = second compound 1 µM, first compound 0.1 µM
[21] = second compound 1 µM, first compound 0.316 µM
[22] = second compound 1 µM, first compound 1 µM
[23] = second compound 1 µM, first compound 3.16 µM
[24] = second compound 1 µM, first compound 10 µM
[25] = second compound 3.16 µM, first compound 0.0316 µM
[26] = second compound 3.16 µM, first compound 0.1 µM
[27] = second compound 3.16 µM, first compound 0.316 µM
[28] = second compound 3.16 µM, first compound 1 µM
[29] = second compound 3.16 µM, first compound 3.16 µM
[30] = second compound 3.16 µM, first compound 10 µM
[31] = second compound 10 µM, first compound 0.0316 µM
[32] = second compound 10 µM, first compound 0.1 µM
[33] = second compound 10 µM, first compound 0.316 µM
[34] = second compound 10 µM, first compound 1 µM
[35] = second compound 10 µM, first compound 3.16 µM
[36] = second compound 10 µM, first compound 10 µM
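Also: spheroids exposed to compounds for 7 days before reading.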

CCC(CC)c1cc(NC2CCC(N)C2)n2nccc2n1 (stereo unspecified) + C#Cc1c(F)ccc2cc(O)cc(-c3ncc4c(N5CC6CCC(C5)N6)nc(OCC56CCCN5CC(F)C6)nc4c3F)c12
2.36 µM: IC50 (second compound 10 µM)
2.56 µM: IC50 (second compound 3.16 µM)
active: viability, T/C [6] 1.67% | viability, T/C [12] 1.65% | viability, T/C [18] 2.09% | viability, T/C [24] 1.52% | viability, T/C [30] 1.84% | viability, T/C [36] 1.27%
2.63 µM: IC50 (second compound 0.1 µM)
2.5 µM: IC50 (second compound 0.0316 µM)
2.82 µM: IC50 (second compound 0.316 µM)
2.39 µM: IC50 (second compound 1 µM)
inactive: viability, T/C [1] 93.3% | viability, T/C [2] 90.7% | viability, T/C [3] 99.4% | viability, T/C [4] 100% | viability, T/C [5] 38.2% | viability, T/C [7] 99.2% | viability, T/C [8] 103% | viability, T/C [9] 96.9% | viability, T/C [10] 104% | viability, T/C [11] 40.3% | viability, T/C [13] 105% | viability, T/C [14] 109% | viability, T/C [15] 103% | viability, T/C [16] 111% | viability, T/C [17] 43.7% | viability, T/C [19] 96.3% | viability, T/C [20] 90.1% | viability, T/C [21] 101% | viability, T/C [22] 105% | viability, T/C [23] 34.4% | viability, T/C [25] 104% | viability, T/C [26] 95% | viability, T/C [27] 91.2% | viability, T/C [28] 99% | viability, T/C [29] 39.3% | viability, T/C [31] 106% | viability, T/C [32] 90.6% | viability, T/C [33] 92.2% | viability, T/C [34] 103% | viability, T/C [35] 33.7%

Cc1nc(N2CCC3(CC2)COC(C)C3N)c(CO)nc1Sc1ccnc(N)c1Cl (stereo unspecified) + C#Cc1c(F)ccc2cc(O)cc(-c3ncc4c(N5CC6CCC(C5)N6)nc(OCC56CCCN5CC(F)C6)nc4c3F)c12
inactive: viability, T/C [1] 94.9% | viability, T/C [2] 99.1% | viability, T/C [3] 97.7% | viability, T/C [4] 90.2% | viability, T/C [5] 91.5% | viability, T/C [6] 95.2% | viability, T/C [7] 96% | viability, T/C [8] 109% | viability, T/C [9] 106% | viability, T/C [10] 99.7% | viability, T/C [11] 105% | viability, T/C [12] 98.7% | viability, T/C [13] 104% | viability, T/C [14] 102% | viability, T/C [15] 91.9% | viability, T/C [16] 94.7% | viability, T/C [17] 92.1% | viability, T/C [18] 99.7% | viability, T/C [19] 94.3% | viability, T/C [20] 90.1% | viability, T/C [21] 104% | viability, T/C [22] 88.8% | viability, T/C [23] 102% | viability, T/C [24] 98.1% | viability, T/C [25] 99.3% | viability, T/C [26] 96.8% | viability, T/C [27] 86% | viability, T/C [28] 93.6% | viability, T/C [29] 97% | viability, T/C [30] 92.9% | viability, T/C [31] 101% | viability, T/C [32] 96.7% | viability, T/C [33] 93.4% | viability, T/C [34] 92.6% | viability, T/C [35] 105% | viability, T/C [36] 92.3%
> 10 µM: IC50 (second compound 0.0316 µM) | IC50 (second compound 0.1 µM) | IC50 (second compound 0.316 µM) | IC50 (second compound 1 µM) | IC50 (second compound 3.16 µM) | IC50 (second compound 10 µM)

NC1c2ccccc2OC12CCN(c1cnc3c(N4CCCc5ncccc54)n[nH]c3n1)CC2 (stereo unspecified) + C#Cc1c(F)ccc2cc(O)cc(-c3ncc4c(N5CC6CCC(C5)N6)nc(OCC56CCCN5CC(F)C6)nc4c3F)c12
> 10 µM: IC50 (second compound 0.0316 µM) | IC50 (second compound 0.1 µM) | IC50 (second compound 0.316 µM) | IC50 (second compound 1 µM) | IC50 (second compound 3.16 µM) | IC50 (second compound 10 µM)
inactive: viability, T/C [1] 110% | viability, T/C [2] 104% | viability, T/C [3] 111% | viability, T/C [4] 95.3% | viability, T/C [5] 99.8% | viability, T/C [6] 84% | viability, T/C [7] 103% | viability, T/C [8] 96% | viability, T/C [9] 110% | viability, T/C [10] 106% | viability, T/C [11] 94.4% | viability, T/C [12] 76.6% | viability, T/C [13] 99.6% | viability, T/C [14] 105% | viability, T/C [15] 103% | viability, T/C [16] 106% | viability, T/C [17] 96.7% | viability, T/C [18] 90.4% | viability, T/C [19] 109% | viability, T/C [20] 102% | viability, T/C [21] 110% | viability, T/C [22] 106% | viability, T/C [23] 105% | viability, T/C [24] 83.7% | viability, T/C [25] 102% | viability, T/C [26] 97.1% | viability, T/C [27] 102% | viability, T/C [28] 98.9% | viability, T/C [29] 99% | viability, T/C [30] 96.7% | viability, T/C [31] 101% | viability, T/C [32] 101% | viability, T/C [33] 115% | viability, T/C [34] 100% | viability, T/C [35] 94.7% | viability, T/C [36] 80.4%
